Values quoted from earlier work in patent US20210181182A1, “METHOD FOR IDENTIFICATION OF PERTURBAGENS OF PARTICULAR BIOLOGICAL PROCESSES AND CELL SYSTEMS WITHIN LIVING CELLS” (priority 2018, published 2021).
Counter-ions that a name gives are not always drawn. Marks after values point to notes of the source that are not given here.

tested on: mitochondria membrane potential; conditions: HepG2, 1-hour incubation at concentrations below 60 μM; cited from earlier work

| SMILES | MMP assay hitCall |
| --- | --- |
| C[C@@]1(c2ccc(Oc3ccccc3)cc2)OC(=O)N(Nc2ccccc2)C1=O (racemic) [Famoxadone] | 1 |
| COC(C=C(C)CCC=C(C)C)OC [1,1-Dimethoxy-3,7-dimethylocta-2,6-diene] | 0 |
| CCC(=O)C=Cc1ccc(OC)cc1 [1-(4-Methoxyphenyl)-1-pentene-3-one] | 0 |
| Fc1cccc(Cl)c1CCl [1-Chloro-2-(chloromethyl)-3-fluorobenzene] | 0 |
| CC(C)(C)C(=O)CCl [1-Chloro-3,3-dimethyl-butan-2-one] | 0 |
| CCCCCCCCCCCCN1CCCC1=O [1-Dodecyl-2-pyrrolidinone] | 0 |
| C=CC(O)CCCCC (centres unmarked) [1-Octen-3-ol] | 0 |
| c1cc(C(c2ccc(OCC3CO3)cc2)c2ccc(OCC3CO3)cc2)ccc1OCC1CO1 (centres unmarked) [2,2′,2″-[Methanetriyltris(benzene-4,1-diyloxymethanediyl)]trioxirane] | 0 |
| Oc1c(Br)cc(Br)cc1Br [2,4,6-Tribromophenol] | 1 |
| CC=CC=CCOC(=O)C(C)C [2,4-Hexadienyl isobutyrate] | 0 |
| CCC(C)(C)c1cc(O)c(C(C)(C)CC)cc1O [2,5-Bis(2-methylbutan-2-yl)benzene-1,4-diol] | 1 |
| CC(C)(C)c1cc(O)c(C(C)(C)C)cc1O [2,5-Di-tert-butylbenzene-1,4-diol] | 1 |
| CC(C)(C)c1cc([N+](=O)[O-])cc(C(C)(C)C)c1O [2,6-Di-tert-butyl-4-nitrophenol] | 1 |
| C=CC(=O)OCCOCCOCC [2-(2-Ethoxyethoxy)ethyl prop-2-enoate] | 0 |
| Cl.ClCc1ccccn1 [2-(Chloromethyl)pyridine hydrochloride] | 0 |
| Oc1ccc(-c2ccccc2)cc1Cl [2-Chloro-4-phenylphenol] | 1 |
| O=C(CCl)Nc1ccccc1 [2-Chloro-N-phenylacetamide] | 0 |
| O=C(CCl)c1ccccc1 [2-Chloroacetophenone] | 0* |
| C=CC(=O)OCCC#N [2-Cyanoethyl prop-2-enoate] | 0 |
| C=CC(=O)OCCO [2-Hydroxyethyl acrylate] | 0* |
| COc1cc(C)ccc1O [2-Methoxy-4-methylphenol] | 0 |
| COc1ccc(O)c(C(C)(C)C)c1 [2-tert-Butyl-4-methoxyphenol] | 1 |

| SMILES | MMP assay hitCall |
| --- | --- |
| N#Cc1nc(Cl)c(Cl)c(Cl)c1Cl [3,4,5,6-Tetrachloro-2-pyridinecarbonitrile] | 1 |
| CC(C)=CCCC(C)=CC=O [3,7-Dimethyl-2,6-octadienal] | 0 |
| Cl.ClCc1cccnc1 [3-(Chloromethyl)pyridine hydrochloride] | 0 |
| Oc1ccc2c(c1)-c1ccccc1C2 [3-Hydroxyfluorene] | 1 |
| CC(C)CC(C)(c1ccc(O)cc1)c1ccc(O)cc1 [4,4′-(4-Methylpentane-2,2-diyl)diphenol] | 1 |
| Cl.Nc1ccc(-c2ccccc2)cc1 [4-Biphenylamine hydrochloride] | 0 |
| C=Cc1ccc(OC(C)=O)cc1 [4-Ethenylphenyl acetate] | 0 |
| CCCCCCc1ccc(O)cc1O [4-Hexylresorcinol] | 1 |
| CCCCCCCCCc1ccc(O)cc1 [4-Nonylphenol] | 1 |
| CCCc1ccc(O)cc1 [4-Propylphenol] | 1 |
| CCc1cccc(CC)c1N(COC)C(=O)CCl [Alachlor] | 0* |
| C=CCC1=C(C)C(OC(=O)C2C(C=C(C)C)C2(C)C)CC1=O (centres unmarked) [Allethrin] | 1 |
| Clc1nc(Cl)nc(Nc2ccccc2Cl)n1 [Anilazine] | 0 |
| CNC(=O)Oc1cccc2c1OC(C)(C)O2 [Bendiocarb] | 0 |
| CCCCN(CC)c1c([N+](=O)[O-])cc(C(F)(F)F)cc1[N+](=O)[O-] [Benfluralin] | 0 |
| CC1COc2ccccc2N1C(=O)C(Cl)Cl (centres unmarked) [Benoxacor] | 0 |
| CCCCCCCCCCCC[N+](C)(C)Cc1ccccc1.[Cl-] [Benzyldimethyldodecylammonium chloride] | 1 |
| O=c1[nH]c2ccc([S+]([O-])CCN3CCC(Cc4ccc(F)cc4)CC3)cc2o1 (centres unmarked) [Besonprodil] | 0 |
| COc1ccc(-c2ccccc2)cc1NNC(=O)OC(C)C [Bifenazate] | 1 |
| CCC(C)c1cc([N+](=O)[O-])cc([N+](=O)[O-])c1OC(=O)C=C(C)C (centres unmarked) [Binapacryl] | 1 |
| c1cc(OCC2CO2)ccc1Cc1ccc(OCC2CO2)cc1 (centres unmarked) [Bis[4-(glycidyloxy)phenyl]methane] | 0 |
| CC(C)(c1ccc(O)cc1)c1ccc(O)cc1 [Bisphenol A] | 1 |

| SMILES | MMP assay hitCall |
| --- | --- |
| Oc1c(Cl)cc(Cl)cc1Sc1cc(Cl)cc(Cl)c1O [Bithionol, reference compound] | 1 |
| N#Cc1cc(Br)c(O)c(Br)c1 [Bromoxynil] | 1 |
| CCC(C)Nc1c([N+](=O)[O-])cc(C(C)(C)C)cc1[N+](=O)[O-] (centres unmarked) [Butralin] | 0 |
| CCOP(=S)(OCC)OC(Cl)C(Cl)(Cl)Cl (centres unmarked) [Chlorethoxyfos] | 1 |
| CCOCn1c(-c2ccc(Cl)cc2)c(C#N)c(Br)c1C(F)(F)F [Chlorfenapyr] | 1 |
| Oc1ccc(Cl)cc1Cc1ccccc1 [Clorophene] | 1 |
| Cc1ccc(-c2c(Cl)nc(C#N)n2S(=O)(=O)N(C)C)cc1 [Cyazofamid] | 1 |
| Cc1cc(C2CC2)nc(Nc2ccccc2)n1 [Cyprodinil] | 0 |
| CC(=O)O[C@]1(C(C)=O)CC[C@H]2[C@@H]3C=C(Cl)C4=CC(=O)[C@@H]5C[C@@H]5[C@]4(C)[C@H]3CC[C@@]21C [Cyproterone acetate, reference compound] | 1 |
| CN1CSC(=S)N(C)C1 [Dazomet] | 0 |
| CCOC(=O)Nc1cccc(OC(=O)Nc2ccccc2)c1 [Desmedipham] | 1 |
| CCCCOC(=O)c1ccccc1C(=O)OCCCC [Dibutyl phthalate] | 0* |
| COP(=O)(OC)OC=C(Cl)Cl [Dichlorvos] | 0* |
| O=C(OC1CCCCC1)c1ccccc1C(=O)OC1CCCCC1 [Dicyclohexyl phthalate] | 1 |
| C(=NC1CCCCC1)=NC1CCCCC1 [Dicyclohexylcarbodiimide] | 0* |
| CCCCCCCCCC[N+](C)(C)CCCCCCCCCC.[Cl-] [Didecyldimethylammonium chloride] | 1 |
| CCOC(=O)/C=C\C(=O)OCC [Diethyl maleate] | 0* |
| CC1COC(Cn2cncn2)(c2ccc(Oc3ccc(Cl)cc3)cc2Cl)O1 (centres unmarked) [Difenoconazole] | 1 |
| COc1ccc(C(=CC(=O)N2CCOCC2)c2ccc(Cl)cc2)cc1OC [Dimethomorph] | 0 |
| COC(=O)/C=C\C(=O)OC [Dimethyl maleate] | 0 |
| CCC(C)c1cc([N+](=O)[O-])cc([N+](=O)[O-])c1O (centres unmarked) [Dinoseb] | 1 |
| c1ccc(Nc2ccccc2)cc1 [Diphenylamine] | 1 |

| SMILES | MMP assay hitCall |
| --- | --- |
| C=CCOC(=O)/C=C\C(=O)OCC=C [Diprop-2-en-1-yl (2Z)-but-2-enedioate] | 0 |
| CCCCCCCCCCCC[N+](C)(C)C.[Br-] [Dodecyltrimethylammonium bromide] | 1 |
| CCCCCCCCCCCC[N+](C)(C)C.[Cl-] [Dodecyltrimethylammonium chloride] | 0* |
| CN1CCN(c2ccccc2/C=C2\SCCN(c3ccc(Cl)c(Cl)c3)C2=O)CC1 [Elzasonan] | 0 |
| CCOC1Oc2ccc(OS(C)(=O)=O)cc2C1(C)C (centres unmarked) [Ethofumesate] | 0 |
| CCOc1cc(C(C)(C)C)ccc1C1COC(c2c(F)cccc2F)=N1 (centres unmarked) [Etoxazole] | 1 |
| C=CCc1ccc(O)c(OC)c1 [Eugenol] | 0* |
| C=CCc1ccc(OC(=O)Cc2ccccc2)c(OC)c1 [Eugenyl phenylacetate] | 0 |
| CSC1=N[C@@](C)(c2ccccc2)C(=O)N1Nc1ccccc1 [Fenamidone] | 1 |
| CC(C)(C)c1ccc(CCOc2ncnc3ccccc23)cc1 [Fenazaquin] | 0* |
| COP(=S)(OC)Oc1ccc([N+](=O)[O-])c(C)c1 [Fenitrothion] | 0* |
| CCOC(=O)NCCOc1ccc(Oc2ccccc2)cc1 [Fenoxycarb] | 0* |
| N#Cc1nn(-c2c(Cl)cc(C(F)(F)F)cc2Cl)c(N)c1[S+]([O-])C(F)(F)F (centres unmarked) [Fipronil] | 1 |
| CC(C)N(C(=O)COc1nnc(C(F)(F)F)s1)c1ccc(F)cc1 [Flufenacet] | 0 |
| C#CCN1C(=O)COc2cc(F)c(N3C(=O)C4=C(CCCC4)C3=O)cc21 [Flumioxazin] | 0 |
| O=C(Nc1cccc(C(F)(F)F)c1)c1cc(Br)cc(Br)c1O [Fluorosalan] | 1 |
| CO/N=C(/C1=NOCCO1)c1ccccc1Oc1ncnc(Oc2ccccc2Cl)c1F [Fluoxastrobin] | 1 |
| C[Si](Cn1cncn1)(c1ccc(F)cc1)c1ccc(F)cc1 [Flusilazole] | 1 |
| CC(C)Oc1cccc(NC(=O)c2ccccc2C(F)(F)F)c1 [Flutolanil] | 1 |
| O=C(Nc1ccccc1)Nc1ccnc(Cl)c1 [Forchlorfenuron] | 1 |

same assay, conditions: cited from earlier work

| SMILES | MMP assay hitCall |
| --- | --- |
| Nc1ccc(-c2ccc(N)c(N)c2)cc1N [3,3′-Diaminobenzidine] | 1 |
| Nc1ccc(N=Nc2ccccc2)cc1 [4-Aminoazobenzene] | 0 |
| CCN(CC)c1ccc2c(C)cc(=O)oc2c1 [7-Diethylamino-4-methylcoumarin] | 1 |
| Oc1cccc2cccnc12 [8-Hydroxyquinoline] | 0 |
| Oc1ccc(C(c2ccc(O)cc2)(C(F)(F)F)C(F)(F)F)cc1 [Bisphenol AF] | 1 |
| CN(C)NC(=O)CCC(=O)O [Daminozide] | 0 |
